Test results: patent publication US11571423B2, “Small molecule modulators of human sting” (Curadev Pharma Limited, priority 2017, dated 2023)
pEC50: −log10 of the molar value. Where a name gives a salt, the structure may show the parent alone.

Molecular target: hSTING(R232) (Homo sapiens, UniProt Q86WV6, H232R)
Experiment: Luciferase reporter assay in HEK293T-hSTING-Luciferase cells, R232 (wild type) human STING
Format: cell-based
Settings: 20 hr stimulation, read-out: R232 human activity (EC50 range)
Method in brief: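 Clonal HEK293T cells stably expressing STING from a pUNO-1 plasmid plus an ISRE/ISG54-driven secreted luciferase reporter; 5×10^5 cells stimulated with compound for 20 hr. Supernatant luciferase read by luminescence, giving fold-induction over baseline and EC50.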

Sequence of hSTING(R232) (Q86WV6 whole entry H232R): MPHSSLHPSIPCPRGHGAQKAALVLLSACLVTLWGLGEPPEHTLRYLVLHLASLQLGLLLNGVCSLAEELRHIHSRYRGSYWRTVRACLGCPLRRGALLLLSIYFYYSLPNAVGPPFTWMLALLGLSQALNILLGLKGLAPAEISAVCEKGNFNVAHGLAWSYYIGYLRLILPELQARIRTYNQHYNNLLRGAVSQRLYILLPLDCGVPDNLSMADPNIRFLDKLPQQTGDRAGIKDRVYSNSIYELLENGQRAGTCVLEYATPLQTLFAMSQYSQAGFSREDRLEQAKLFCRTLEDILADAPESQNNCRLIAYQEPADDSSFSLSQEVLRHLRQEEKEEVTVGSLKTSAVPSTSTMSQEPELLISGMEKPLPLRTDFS

Row | pEC50 | SMILES
1 | 5.00 to 6.00 | Cc1cc(CN2C(=O)N(C)Cc3ccc(C(=O)NCc4c(F)cc(F)cc4F)cc32)no1 [Example 33, 3-methyl-1-((5-methylisoxazol-3-yl)methyl)-2-oxo-N-(2,4,6-trifluorobenzyl)-1,2,3,4-tetrahydroquinazoline-7-carboxamide]
2 | 5.00 to 6.00 | C[C@H]1c2ccc(C(=O)NCc3c(F)cc(F)cc3F)cc2N(Cc2c(Cl)cn(C)c(=O)c2F)C(=O)N1C [Example 288, (S)-1-((5-chloro-3-fluoro-1-methyl-2-oxo-1,2-dihydropyridin-4-yl)methyl)3,4-dimethyl-2-oxo-N-(2,4,6-trifluorobenzyl)-1,2,3,4-tetrahydroquinazoline-7-carboxamide]
3 | 5.00 to 6.00 | CN1Cc2ccc(C(=O)NCc3c(F)cc(F)cc3F)cc2N(Cc2cccc(C(N)=O)c2)C1=O [Example 14, 1-(3-carbamoylbenzyl)-3-methyl-2-oxo-N-(2,4,6-trifluorobenzyl)-1,2,3,4-tetrahydroquinazoline-7-carboxamide]
4 | < 5.00 | CN1Cc2ccc(C(=O)NCc3cccc4occc34)cc2N(Cc2c(F)cccc2Cl)C1=O [Example 50, N-(benzofuran-4-ylmethyl)-1-(2-chloro-6-fluorobenzyl)-3-methyl-2-oxo-1,2,3,4-tetrahydroquinazoline-7-carboxamide]
5 | > 6.00 | COc1cccc(F)c1CN1C(=O)N(C)Cc2ccc(C(=O)NCc3c(F)cc(F)cc3F)cc21 [Example 10, 1-(2-fluoro-6-methoxybenzyl)-3-methyl-2-oxo-N-(2,4,6-trifluorobenzyl)-1,2,3,4-tetrahydroquinazoline-7-carboxamide]
6 | 5.00 to 6.00 | Cc1cccc(F)c1CN1C(=O)N(C)C(C)c2ccc(C(=O)NCc3c(F)cc(F)cc3F)cc21 (stereo not shown) [Example 161, 1-(2-fluoro-6-methylbenzyl)-3,4-dimethyl-2-oxo-N-(2,4,6-trifluorobenzyl)-1,2,3,4-tetrahydroquinazoline-7-carboxamide]
7 | < 5.00 | CN1Cc2ccc(C(=O)NCc3c(F)cc(F)cc3F)cc2N(Cc2cn(C)nn2)C1=O [Example 55, 3-methyl-1-((1-methyl-1H-1,2,3-triazol-4-yl)methyl)-2-oxo-N-(2,4,6-trifluorobenzyl)-1,2,3,4-tetrahydroquinazoline-7-carboxamide]
8 | > 6.00 | COc1ccc(CN2C(=O)N(C)C(C)c3ccc(C(=O)NCc4c(F)cc(F)cc4F)cc32)c(F)c1 (stereo not shown) [Example 217, 1-(2-fluoro-4-methoxybenzyl)-3,4-dimethyl-2-oxo-N-(2,4,6-trifluorobenzyl)-1,2,3,4-tetrahydroquinazoline-7-carboxamide]
9 | > 6.00 | CC1c2ccc(C(=O)NCc3ccc(F)cc3F)cc2N(Cc2ccccc2F)C(=O)N1C (stereo not shown) [Example 197, N-(2,4-difluorobenzyl)-1-(2-fluorobenzyl)-3,4-dimethyl-2-oxo-1,2,3,4-tetrahydroquinazoline-7-carboxamide]
10 | 5.00 to 6.00 | CN1Cc2ncc(C(=O)NCc3c(F)cc(F)cc3F)cc2N(Cc2c(F)cccc2Cl)C1=O [Example 71, 1-(2-chloro-6-fluorobenzyl)-3-methyl-2-oxo-N-(2,4,6-trifluorobenzyl)-1,2,3,4-tetrahydropyrido[3,2-d]pyrimidine-7-carboxamide]
11 | > 6.00 | C[C@H]1c2ccc(C(=O)NCc3c(F)cc(F)cc3F)cc2N(Cc2c(F)cc(OCCN)cc2F)C(=O)N1C [Example 292, (S)-1-(4-(2-aminoethoxy)-2,6-difluorobenzyl)-3,4-dimethyl-2-oxo-N-(2,4,6-trifluorobenzyl)-1,2,3,4-tetrahydroquinazoline-7-carboxamide hydrochloride]
12 | > 6.00 | CC1c2ccc(C(=O)NCc3c(F)cc(F)cc3F)cc2N(Cc2ccc(F)cc2)C(=O)N1C (stereo not shown) [Example 218, 1-(4-fluorobenzyl)-3,4-dimethyl-2-oxo-N-(2,4,6-trifluorobenzyl)-1,2,3,4-tetrahydroquinazoline-7-carboxamide]
13 | 5.00 to 6.00 | C[C@@H]1c2ccc(C(=O)NCc3c(F)cc(F)cc3F)cc2N(Cc2c(O)cccc2F)C(=O)N1C [Example 172, (R)-1-(2-fluoro-6-hydroxybenzyl)-3,4-dimethyl-2-oxo-N-(2,4,6-trifluorobenzyl)-1,2,3,4-tetrahydroquinazoline-7-carboxamide]
14 | < 5.00 | CN1Cc2ccc(C(=O)NCc3c(F)cc(F)cc3F)cc2N(Cc2cnsn2)C1=O [Example 35, l-((l,2,5-thiadiazol-3-yl)methyl)-3-methyl-2-oxo-N-(2,4,6-trifluorobenzyl)-1,2,3,4-tetrahydroquinazoline-7-carboxamide]
15 | > 6.00 | CC1c2ccc(C(=O)NCc3c(F)cc(F)cc3F)cc2N(Cc2ccccc2)C(=O)N1C (stereo not shown) [Example 191, 1-benzyl-3,4-dimethyl-2-oxo-N-(2,4,6-trifluorobenzyl)-1,2,3,4-tetrahydroquinazoline-7-carboxamide]
16 | 5.00 to 6.00 | CON1Cc2ccc(C(=O)NCc3c(F)cc(F)cc3F)cc2N(Cc2c(F)cccc2Cl)C1=O [Example 49, 1-(2-chloro-6-fluorobenzyl)-3-methoxy-2-oxo-N-(2,4,6-trifluorobenzyl)-1,2,3,4-tetrahydroquinazoline-7-carboxamide]

Row | pEC50 | SMILES
17 | > 6.00 | CC1c2ccc(C(=O)NCc3c(F)cc(F)cc3F)cc2N(Cc2c(N)cccc2F)C(=O)N1C (stereo not shown) [Example 173, 1-(2-amino-6-fluorobenzyl)-3,4-dimethyl-2-oxo-N-(2,4,6-trifluorobenzyl)-1,2,3,4-tetrahydroquinazoline-7-carboxamide]
18 | > 6.00 | CN1Cc2ccc(C(=O)NCc3c(F)cc(F)cc3F)cc2N(Cc2ccccc2F)C1=O [Example 12, 1-(2-fluorobenzyl)-3-methyl-2-oxo-N-(2,4,6-trifluorobenzyl)-1,2,3,4-tetrahydroquinazoline-7-carboxamide]
19 | > 6.00 | CC1c2ccc(C(=O)NCc3c(F)cc(F)cc3F)cc2N(Cc2ccccc2)C(=O)N1C (stereo not shown) [Example 192, 1-benzyl-3,4-dimethyl-2-oxo-N-(2,4,6-trifluorobenzyl)-1,2,3,4-tetrahydroquinazoline-7-carboxamide]
20 | < 5.00 | CN1Cc2ccc(C(=O)NCc3cccc4c3OCO4)cc2N(Cc2c(F)cccc2Cl)C1=O [Example 43, N-(benzo[d][1,3]dioxol-4-ylmethyl)-1-(2-chloro-6-fluorobenzyl)-3-methyl-2-oxo-1,2,3,4-tetrahydroquinazoline-7-carboxamide]
21 | 5.00 to 6.00 | CN1Cc2ccc(C(=O)NCc3c(F)cc(F)cc3F)cc2N(Cc2cc(F)cc(F)c2)S1(=O)=O [Example 70, 1-(3,5-difluorobenzyl)-3-methyl-N-(2,4,6-trifluorobenzyl)-3,4-dihydro-1H-benzo[c][1,2,6]thiadiazine-7-carboxamide 2,2-dioxide]
22 | < 5.00 | C[C@H]1c2ccc(C(=O)NCc3cccc(OCCO)c3F)cc2N(Cc2c(F)cccc2Cl)C(=O)N1C [Example 276, (S)-1-(2-chloro-6-fluorobenzyl)-N-(2-fluoro-3-(2-hydroxyethoxy)benzyl)-3,4-dimethyl-2-oxo-1,2,3,4-tetrahydroquinazoline-7-carboxamide]
23 | < 5.00 | C[C@H]1c2ccc(C(=O)NCc3c(F)cc(F)cc3F)cc2N(Cc2c(F)ccc(C(=O)O)c2F)C(=O)N1C [Example 142, (S)-3-((3,4-Dimethyl-2-oxo-7-((2,4,6-trifluorobenzyl)carbamoyl)-3,4-dihydroquinazolin-1(2H)-yl)methyl)-2,4-difluorobenzoic acid]
24 | > 6.00 | C[C@H]1c2ccc(C(=O)NCc3c(F)cc(F)cc3F)cc2N(Cc2c(F)ccc(C(N)=O)c2Cl)C(=O)N1C [Example 186, (S)-1-(3-carbamoyl-2-chloro-6-fluorobenzyl)-3,4-dimethyl-2-oxo-N-(2,4,6-trifluorobenzyl)-1,2,3,4-tetrahydroquinazoline-7-carboxamide]
25 | > 6.00 | CN1Cc2ccc(C(=O)NCc3c(F)cc(F)cc3F)cc2N(Cc2cc(F)cc(F)c2)C1=O [Example 1, 1-(3,5-difluorobenzyl)-3-methyl-2-oxo-N-(2,4,6-trifluorobenzyl)-1,2,3,4-tetrahydroquinazoline-7-carboxamide]
26 | 5.00 to 6.00 | COc1cccc(F)c1CN1C(=O)N(C)C(C)c2ccc(C(=O)NCc3c(F)cc(F)cc3F)cc21 (stereo not shown) [Example 155, 1-(2-fluoro-6-methoxybenzyl)-3,4-dimethyl-2-oxo-N-(2,4,6-trifluorobenzyl)-1,2,3,4-tetrahydroquinazoline-7-carboxamide]
27 | < 5.00 | C[C@H]1c2ccc(C(=O)NCc3c(F)cc(F)cc3F)cc2N(Cc2c(Cl)c[nH]c(=O)c2F)C(=O)N1C [Example 287, (S)-1-((5-chloro-3-fluoro-2-oxo-1,2-dihydropyridin-4-yl)methyl)-3,4-dimethyl-2-oxo-N-(2,4,6-trifluorobenzyl)-1,2,3,4-tetrahydroquinazoline-7-carboxamide]
28 | > 6.00 | Cc1cccc(C)c1CN1C(=O)N(C)C(C)c2ccc(C(=O)NCc3c(F)cc(F)cc3F)cc21 (stereo not shown) [Example 215, 1-(2,6-dimethylbenzyl)-3,4-dimethyl-2-oxo-N-(2,4,6-trifluorobenzyl)-1,2,3,4-tetrahydroquinazoline-7-carboxamide]
29 | 5.00 to 6.00 | CN1Cc2ccc(C(=O)NCc3ccccc3F)cc2N(Cc2c(F)cccc2Cl)C1=O [Example 30, 1-(2-chloro-6-fluorobenzyl)-N-(2-fluorobenzyl)-3-methyl-2-oxo-1,2,3,4-tetrahydroquinazoline-7-carboxamide]
30 | 5.00 to 6.00 | CC(C)N1Cc2ccc(C(=O)NCc3c(F)cc(F)cc3F)cc2N(Cc2cc(F)cc(F)c2)C1=O [Example 15, 1-(3,5-difluorobenzyl)-3-isopropyl-2-oxo-N-(2,4,6-trifluorobenzyl)-1,2,3,4-tetrahydroquinazoline-7-carboxamide]
31 | < 5.00 | CN1Cc2ccc(C(=O)NCc3cc4cc(N)ccc4o3)cc2N(Cc2c(F)cccc2Cl)C1=O [Example 58, N-((5-aminobenzofuran-2-yl)methyl)-1-(2-chloro-6-fluorobenzyl)-3-methyl-2-oxo-1,2,3,4-tetrahydroquinazoline-7-carboxamide]
